# Assay results published in US20240122930A1, “INTEGRIN INHIBITORS AND USES THEREOF IN COMBINATION WITH OTHER AGENTS” (Pliant Therapeutics, Inc., priority 2022, published 2024).
# Columns and labels:
# [1] = test system: IPF-derived human lung fibroblasts; assay: LAP adhesion assay, IPF-derived human lung fibroblasts (xCELLigence); type: cell-based; details: adhesion to LAP, FIG. 3B
# Method: Two latency associated peptide (LAP) adhesion binding assays were devised using primary human lung cells, including normal (healthy) human bronchial epithelial cells and human lung fibroblasts (healthy and IPF).
# Human lung fibroblasts derived from normal and IPF lung tissue are known to express αVβ1 integrin. The IPF-derived human lung fibroblasts were prepared for the assay by dissociation with trypsin/EDTA, and were seeded at 20,000 cells per well on 96 well plates (ACEA Bioscience E-plate View, Acea Biosciences; San Diego, CA) previously coated with […] of recombinant human LAP (R&D Systems; Minneapolis, MN) and blocked with 4% bovine serum albumin. Cell index (electrical impedance) was measured to assess cell attachment/spreading every 3 minutes for 24 hours at 37° C./5% CO2 using the xCELLigence RTCA MP Instrument (Acea Biosciences; San Diego, CA). […] In the assay, the IPF-derived human lung fibroblasts were separately incubated with: the αVβ1-selective small molecule inhibitor; the selective antibody αVβ6 inhibitor, 3G9; and Compound 5.
# [2] = test system: participants with idiopathic pulmonary fibrosis (IPF); assay: Phase 2a clinical trial ([…]-IPF): Forced Vital Capacity (FVC) spirometry; type: in vivo, human; details: for Proportion of Participants with FVCpp Decline ≥10%, ITT, FIG. 20: placebo (N=23) 17.4%; for LS Mean (SE) change from Baseline in FVC at Week 12, ITT, Not on SoC subgroup, FIG. 30: placebo (n=7) −28.2; for Proportion of participants with Absolute FVCpp decline ≥10%, ITT, FIG. 31 / Proportion of participants with Relative FVCpp decline ≥10%, ITT, FIG. 29: placebo (n=31) 12.9%; for LS Mean (SE) change from Baseline in FVC at Week 12, mITT, FIG. 27: placebo (n=31) −64.2
# [3] = test system: patients with idiopathic pulmonary fibrosis (IPF); assay: Phase 2a randomized, double-blind, placebo-controlled trial in IPF; type: in vivo, human; details: FIG. 36
# [4] = test system: normal human bronchial epithelial cells; assay: LAP adhesion assay, normal human bronchial epithelial cells (xCELLigence); type: cell-based; details: FIG. 3A
# Method: Human bronchial epithelial cells are known to express αVβ6 integrin in culture. Human bronchial epithelial cells were prepared for the assay by dissociation with trypsin/EDTA and were then seeded at 20,000 cells per well on 96 well plates (ACEA Bioscience E-plate View, Acea Biosciences; San Diego, CA) previously coated with 5 μg/ml of recombinant human LAP (R&D Systems; Minneapolis, MN) and blocked with 4% bovine serum albumin.
# αVβ6 = biological target: T1, αVβ6 (Homo sapiens, UniProt P06756+P18564); assay: αVβ6 target engagement by [18F]FP-R01-MG-F2 PET/CT in participants with IPF; type: in vivo; set-up: Vt / Vs (Vt − VND): unit not given here; details: for Vs (Vt − VND): VND = 0.66
# T1 construct: clinical trial evaluating αVβ6 receptor occupancy in the lungs; from tissue; host or cells: lungs of human participants with IPF (in vivo PET/CT)
# Method: The aim of this Example is to assess target engagement of the disclosed compounds to αVβ6 in human participants with IPF using [^18F]FP-R01-MG-F2 PET/computerized tomography (CT) imaging.
# This Example was conducted as an open-label, single-dose (60 mg, 120 mg, 240 mg or 320 mg) clinical trial evaluating αVβ6 receptor occupancy in the lungs, safety, and pharmacokinetics of Compound #5 in subjects with IPF. To date, 4 participants have completed the study. Each of these 4 participants was undergoing a pre-existing course of therapy using one of the SoC (Standard of Care) compounds, nintedanib. These participants continued their pre-existing nintedanib therapy throughout this study. Knottin tracer uptake kinetics were compared pre- and post-dose of the disclosed compound, as measured by standardized uptake values (SUVs) and parameters estimated from kinetic modeling in regions-of-interest on dynamic [^18F]FP-R01-MG-F2 PET/CT scans. […] Receptor occupancy was estimated from the output of the two-compartment model (VT, the […]) using standard equations and fitting algorithms, and corrections for VND (non-displaceable tracer binding). For example, in FIG. 10, the data points, shown as circles, are modeled by the following formula: […]
# Five subjects with IPF were enrolled: Subject A received a single dose of 60 mg of the disclosed compound followed by a post-dose scan. Subject B received two doses of the disclosed compound separated by two weeks, 120 mg and 240 mg, each followed by a post-dose scan. Subject C received two doses of the disclosed compound separated by two weeks, 240 mg and 320 mg, each followed by a post-dose scan. Subject D received a single dose of 320 mg of the disclosed compound followed by a post-dose scan.
# integrin beta-6 (ITGB6) = assay: Phase 2a clinical trial: plasma integrin beta-6; type: in vivo, human; details: IPF participants; greatest effect at 320 mg
# From the text: Med. 2022 June; 10(6):593-602, which is incorporated herein by reference in its entirety. […] Res. 2019 Jul. 12; 20(1):148, which is incorporated herein by reference in its entirety. ** denotes that p<0.01 vs placebo. LS refers to Least Squares. SE refers to Standard Error. Integrin beta-6 data was reported in relative quantitation log2 scale.
# lung Col1a1 expression = assay: Precision cut lung slices, chronic bleomycin exposure, Col1a1 expression; type: cell-based, mice (C57BL/6); details: chronic bleomycin PCLS, 7 days culture
# Method: Mice (C57BL/6) were administered 3 U/kg of bleomycin (Teva Pharmaceuticals; North Wales, PA) on Day 0 and 1 U/kg of bleomycin on days 14, 28, 42 and 56 via oropharyngeal aspiration while under anesthesia. At day 70, 14 days after the final bleomycin insult, precision cut lung slices were obtained. […] The lobes were then subjected to precision slicing to obtain samples for culture using a microtome (Compresstome VF-300-OZ, Precisionary; Greenville, NC). Individual slices were distributed in a multiwell culture plate and cultured for 7 days under control (DMSO) and test compound conditions. The viability of the slices over the course of culturing was confirmed by WST-1 assay of mitochondrial activity. […] Compound 5; and the small molecule ALK5 inhibitor. […] Compound 5 was run at approximate IC50 for inhibition of TGF-beta activation by αVβ6.
# [5] = % target engagement fit of FIG. 10
# T1 sequence (P06756 31-1048): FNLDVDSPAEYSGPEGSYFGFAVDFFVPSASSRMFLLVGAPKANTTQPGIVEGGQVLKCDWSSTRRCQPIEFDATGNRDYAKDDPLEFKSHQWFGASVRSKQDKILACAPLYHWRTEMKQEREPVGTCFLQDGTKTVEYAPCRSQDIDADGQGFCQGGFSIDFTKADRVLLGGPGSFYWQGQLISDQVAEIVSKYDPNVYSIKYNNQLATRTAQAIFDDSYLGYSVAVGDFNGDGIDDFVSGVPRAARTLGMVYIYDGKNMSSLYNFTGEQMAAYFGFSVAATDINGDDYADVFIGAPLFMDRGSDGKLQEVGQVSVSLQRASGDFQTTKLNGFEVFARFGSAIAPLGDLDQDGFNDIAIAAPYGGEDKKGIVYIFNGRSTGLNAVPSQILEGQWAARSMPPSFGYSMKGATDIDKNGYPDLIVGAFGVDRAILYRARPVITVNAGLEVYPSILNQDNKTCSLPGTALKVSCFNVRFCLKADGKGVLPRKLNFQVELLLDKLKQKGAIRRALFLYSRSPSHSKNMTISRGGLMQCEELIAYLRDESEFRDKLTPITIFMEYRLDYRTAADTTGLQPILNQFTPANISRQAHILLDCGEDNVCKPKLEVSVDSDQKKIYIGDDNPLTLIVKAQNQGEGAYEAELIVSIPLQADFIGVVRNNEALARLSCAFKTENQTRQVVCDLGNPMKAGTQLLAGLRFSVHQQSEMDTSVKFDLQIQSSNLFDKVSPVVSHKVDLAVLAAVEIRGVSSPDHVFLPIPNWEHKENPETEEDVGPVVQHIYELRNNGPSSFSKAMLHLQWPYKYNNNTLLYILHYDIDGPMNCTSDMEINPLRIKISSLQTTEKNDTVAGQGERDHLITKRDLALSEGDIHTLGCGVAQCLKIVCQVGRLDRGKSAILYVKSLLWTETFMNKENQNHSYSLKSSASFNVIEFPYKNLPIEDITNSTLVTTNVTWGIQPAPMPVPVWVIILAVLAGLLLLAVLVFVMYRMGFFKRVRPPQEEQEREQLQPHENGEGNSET
# T1 sequence (P18564 22-788): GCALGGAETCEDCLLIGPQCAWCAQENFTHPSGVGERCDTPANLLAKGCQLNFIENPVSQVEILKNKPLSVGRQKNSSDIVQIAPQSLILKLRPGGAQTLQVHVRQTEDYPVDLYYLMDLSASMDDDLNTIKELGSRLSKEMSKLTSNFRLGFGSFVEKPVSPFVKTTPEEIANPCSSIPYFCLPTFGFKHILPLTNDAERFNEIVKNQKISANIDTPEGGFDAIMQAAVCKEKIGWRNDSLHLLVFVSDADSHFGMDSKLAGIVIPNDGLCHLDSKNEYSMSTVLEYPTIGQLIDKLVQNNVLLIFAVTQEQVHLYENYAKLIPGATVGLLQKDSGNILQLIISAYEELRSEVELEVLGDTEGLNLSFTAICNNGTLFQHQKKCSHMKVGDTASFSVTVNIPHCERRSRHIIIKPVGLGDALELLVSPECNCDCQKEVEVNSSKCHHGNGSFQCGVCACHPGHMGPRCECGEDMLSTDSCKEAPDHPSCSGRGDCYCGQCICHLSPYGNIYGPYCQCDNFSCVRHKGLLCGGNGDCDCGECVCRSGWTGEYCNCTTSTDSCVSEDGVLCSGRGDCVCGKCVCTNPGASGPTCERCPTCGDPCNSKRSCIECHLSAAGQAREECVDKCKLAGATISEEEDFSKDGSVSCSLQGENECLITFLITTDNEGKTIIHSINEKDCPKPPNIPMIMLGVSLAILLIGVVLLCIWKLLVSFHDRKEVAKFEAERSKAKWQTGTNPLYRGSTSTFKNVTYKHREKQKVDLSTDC
compound,measurement,setting,value
"COCCN(CCCCc1ccc2c(n1)NCCC2)CC[C@H](Nc1ncnc2ccccc12)C(=O)O [Compound 5, (S)-4-((2-methoxyethyl) (4-(5,6,7,8-tetrahydro-1,8-naphthyridin-2-yl)butyl)amino)-2-(quinazolin-4-ylamino) butanoic acid]",cell adhesion in the IPF-derived lung fibroblasts,[1],substantially inhibited
same,"LS Mean Change From Baseline in FVC at week 12, On SoC Subgroup (MMRM, ITT)","[2]; 40 mg (N=17), placebo −95.2 mL",-58.3 mL
same,"Proportion of Participants with FVCpp Decline ≥10%, ITT, FIG. 20","[2]; 40 mg (N=22), 12 weeks",18.2%
same,"LS Mean (SE) change from Baseline in FVC at Week 12, ITT, Not on SoC subgroup, FIG. 30",[2]; 40 mg (n=5),-43.5 mL
same,"Proportion of participants with Absolute FVCpp decline ≥10%, ITT, FIG. 31",[2]; 40 mg (n=22),9.1%
same,"Proportion of participants with Relative FVCpp decline ≥10%, ITT, FIG. 29",[2]; 40 mg (n=22),18.2%
same,"Proportion of Participants with FVCpp Decline ≥10%, ITT, FIG. 20","[2]; 80 mg (N=23), 12 weeks",8.7%
same,"LS Mean (SE) change from Baseline in FVC at Week 12, ITT, Not on SoC subgroup, FIG. 30",[2]; 80 mg (n=4),138.5 mL
same,"Proportion of participants with Absolute FVCpp decline ≥10%, ITT, FIG. 31",[2]; 80 mg (n=23),8.7%
same,"Proportion of participants with Relative FVCpp decline ≥10%, ITT, FIG. 29",[2]; 80 mg (n=23),8.7%
same,"LS Mean (SE) change from Baseline in FVC at Week 12, mITT, FIG. 27",[2]; 80 mg (n=23),22.8 mL
same,"Proportion of Participants with FVCpp Decline ≥10%, ITT, FIG. 20","[2]; 160 mg (N=22), 12 weeks",4.5%
same,"LS Mean (SE) change from Baseline in FVC at Week 12, ITT, Not on SoC subgroup, FIG. 30",[2]; 160 mg (n=3),26.4 mL
same,"Proportion of participants with Absolute FVCpp decline ≥10%, ITT, FIG. 31",[2]; 160 mg (n=22),4.5%
same,"Proportion of participants with Relative FVCpp decline ≥10%, ITT, FIG. 29",[2]; 160 mg (n=22),4.5%
same,"LS Mean (SE) change from Baseline in FVC at Week 12, mITT, FIG. 27",[2]; 160 mg (n=22),-28.7 mL
same,Participants with a ≥10% absolute decline in FVC over 24 weeks,[2]; 320 mg,no Compound 5-treated participants
same,"LS Mean (SE) change from Baseline in FVC at Week 12, ITT, Not on SoC subgroup, FIG. 30",[2]; 320 mg (n=4),19.8 mL
same,"Proportion of participants with Absolute FVCpp decline ≥10%, ITT, FIG. 31",[2]; 320 mg (n=21),0%
same,"Proportion of participants with Relative FVCpp decline ≥10%, ITT, FIG. 29",[2]; 320 mg (n=21),0%
same,"LS Mean (SE) change from Baseline in FVC at Week 12, mITT, FIG. 27",[2]; 320 mg (n=21),26.8 mL
same,Participants with a decline of ≥10% in percent predicted FVC (FVCpp),"[2]; 320 mg, 12 weeks",No participants
same,Reduction of the decline from baseline in FVCpp compared to placebo,"[2]; 320 mg, Week 24",68%
same,"Average decrease in FVC at 24 weeks, ITT, SoC subgroup, FIG. 35","[2]; 320 mg, patients on standard of care (pirfenidone or nintedanib), placebo 172.8 mL",35.0 mL
same,"Patients showing an improvement in FVC at 24 weeks, ITT, FIG. 36","[2]; 320 mg, placebo 0%",50%
same,"Average decrease in FVC at 24 weeks, ITT, FIG. 34","[2]; 320 mg, placebo 109.3 mL",35.9 mL
same,"Change in FVC percent predicted from baseline at Week 24, ITT, FIG. 37","[2]; 320 mg, placebo −[…]",−0.8%
same,Proportion of participants with FVCpp decline of ≥10%,"[2]; 40, 80, 160 mg, 12 weeks",dose-dependent reduction
same,"Change in FVC from Baseline to Week 12 (MMRM, ITT)","[2]; pooled Compound 5 groups 40-160 mg (n = 67), placebo −74.1 mL",-15.1 mL
same,Reduction in FVC decline over 12 weeks compared to placebo,[2]; pooled active groups 40-160 mg,80%
same,patients with FVC improvement at week 12 who maintained improvement in FVC at week 24,[3],About 89%
same,normal bronchial epithelial cell adhesion to LAP,[4],substantially inhibited
same,decrease of the volume of distribution of the knottin radiotracer in the lungs,αVβ6; 60 mg dose,approximately 50%
same,decrease of the volume of distribution of the knottin radiotracer in the lungs,αVβ6; 240 and 320 mg doses,greater than 95%
same,best-fit bottom value,αVβ6; [5],0
same,best-fit hillslope value,αVβ6; [5],1.11
same,best-fit top value,αVβ6; [5],87.4
same,Conc (Unbound Plasma Concentration),"αVβ6; Subject A, 60 mg",3.66 nM
same,Vt,"αVβ6; Subject A, post-dose 60 mg",1.84
same,Vs (Vt − VND),"αVβ6; Subject A, post-dose 60 mg",1.18
same,Conc (Unbound Plasma Concentration),"αVβ6; Subject B, 120 mg",10 nM
same,%DeltaVt,"αVβ6; Subject B, 120 mg, corrected for non-displaceable binding",59.76%
same,Conc (Unbound Plasma Concentration),"αVβ6; Subject B, 240 mg",58.3 nM
same,Vt,"αVβ6; Subject B, post-dose 120 mg",1.65
same,Vs (Vt − VND),"αVβ6; Subject B, post-dose 120 mg",0.99
same,Vt,"αVβ6; Subject B, post-dose 240 mg",0.72
same,Vs (Vt − VND),"αVβ6; Subject B, post-dose 240 mg",0.06
same,Conc (Unbound Plasma Concentration),"αVβ6; Subject C, 240 mg",103 nM
same,Vt,"αVβ6; Subject C, post-dose 240 mg",0.98
same,Vs (Vt − VND),"αVβ6; Subject C, post-dose 240 mg",0.32
same,Vt,"αVβ6; Subject C, post-dose 320 mg",0.85
same,Vs (Vt − VND),"αVβ6; Subject C, post-dose 320 mg",0.19
same,Conc (Unbound Plasma Concentration),"αVβ6; Subject D, 320 mg",33.6 nM
same,Vt,"αVβ6; Subject D, post-dose 320 mg",0.75
same,Vs (Vt − VND),"αVβ6; Subject D, post-dose 320 mg",0.09
same,Receptor occupancy,αVβ6; at pharmacologically relevant plasma concentrations,> 95%
same,concentration at which the exposure response saturates,"αVβ6; drug exposure at 4 hours, approaching 100% receptor occupancy",about 100 nM
same,EC50,"αVβ6; unbound plasma concentration vs % target engagement, 4-parameter non-linear regression (FIG. 10), read-out: best-fit EC50",2.96 nM
same,Circulating (plasma) integrin beta-6 levels relative to placebo,integrin beta-6 (ITGB6),reduced
same,"lung Col1a1 expression, normalized to DMSO control slices",lung Col1a1 expression,decreased lung Col1a1 expression substantially
